Data published in patent US20220192935A1, “COMPOSITION FOR A TOPICAL APPLICATION ON THE SKIN” (Biodermic Health & Beauty GmbH & Co. KG, priority 2019, published 2022).

System: organisms of the skin flora (Corynebacterium minutissimum, Streptococcus mitis, Staphylococcus epidermidis, Staphylococcus galinarum, Propionibacterium acnes …)
Experiment: Investigation of single ingredients for influence on the growth of the organisms of the skin flora
Assay type: cell-based
Conditions: single ingredient, result in words
Description: The surprising positive effect of the above-described substances or substance groups on the growth of the microorganisms of the skin flora has been confirmed by investigations on microorganisms of the skin flora. Specifically, this involved analyzing the growth of the following species: Corynebacterium minutissimum, Streptococcus mitis, Staphylococcus epidermidis, Staphylococcus galinarum, Propionibacterium acnes, and Malassezia furfur, Malassezia sympodialis, Malassezia globosa and Malassezia restricta. The positive effect can be attributed to the fact that the microorganisms present on the skin cannot make use of the substances investigated. […] Investigations on Corynebacterium minutissimum, Streptococcus mitis, Staphylococcus epidermidis, Staphylococcus galinarum, Propionibacterium acnes, and Malassezia furfur, Malassezia sympodialis, Malassezia globosa and Malassezia restricta have confirmed this effect. The positive effect of these emulsifiers in terms of their influence on the growth of organisms of the skin flora has been confirmed by investigations on Corynebacterium minutissimum, Streptococcus mitis, Staphylococcus epidermidis, Staphylococcus galinarum, Propionibacterium acnes, and Malassezia furfur, Malassezia sympodialis, Malassezia globosa and Malassezia restricta. […]

Q: With Caprylic/Capric Triglyceride as the substance, how does the “influence on the growth of the organisms of the skin flora” value read?
A: The value was “No growth-promoting influence was detected”.
